In patent publication EP1935887A1, “Heterocyclic substituted carbonyl derivatives and their use as dopamine D3 receptor ligands” (Aventis Pharmaceuticals Inc., priority 2001, dated 2002) one finds Ki data, which are given here for 63 molecules.

The assay has as its target T1, Cloned Human Dopamine D3 Receptors (Homo sapiens, UniProt P35462).
T1 construct: expressed in transfected cells; membrane homogenate
The experiment in a line: [N-Methyl-3H]Spiroperidol binding to cloned human dopamine D3 receptors. The procedure, abridged:
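Membranes from CHO cells stably expressing human D3 receptor, homogenised in 10% DMSO and stored at -80°C. Binding uses [N-methyl-3H]spiroperidol in Tris buffer, pH 7.7.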

Setting [1] is: Table 2, unit inferred, read-out: d3Ki.
The mark [2] stands for this setting: Table 2 part the 10th table, read-out: d3Ki.

Where two headings read alike, the source gives them in different places.

T1 sequence (P35462 whole entry): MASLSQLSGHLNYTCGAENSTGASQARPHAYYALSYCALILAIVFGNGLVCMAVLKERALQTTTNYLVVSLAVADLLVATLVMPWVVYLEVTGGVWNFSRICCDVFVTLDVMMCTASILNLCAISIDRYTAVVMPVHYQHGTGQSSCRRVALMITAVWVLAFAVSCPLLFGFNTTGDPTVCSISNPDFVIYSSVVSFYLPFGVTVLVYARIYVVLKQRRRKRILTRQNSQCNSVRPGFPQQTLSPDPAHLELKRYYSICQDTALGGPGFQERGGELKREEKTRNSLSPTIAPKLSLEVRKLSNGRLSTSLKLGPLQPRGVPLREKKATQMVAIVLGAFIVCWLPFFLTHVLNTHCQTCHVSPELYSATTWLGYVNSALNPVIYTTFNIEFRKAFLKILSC

Take `C[C@H]1CC[C@H](NC(=O)CCCN2CCN(c3csc4cc(F)ccc34)CC2CCCc2ccccc2)CC1` (some centres unmarked) [compound 827105]: under setting [1], the Ki is 0.117 µM. Still for that read-out and setting: the result for `CCOC(=O)C1CCC(NC(=O)CCCN2CCN(c3csc4cc(F)ccc34)CC2CCCc2ccccc2)CC1` (centres unmarked) [compound 827106] reads 0.317 µM; that for `CC[C@H]1CC[C@H](NC(=O)CCCN2CCN(c3csc4cc(F)ccc34)CC2CCCc2ccccc2)CC1` (some centres unmarked) [compound 827107], 0.489 µM; that for `CC1CCCC(NC(=O)CCCN2CCN(c3csc4cc(F)ccc34)CC2CCCc2ccccc2)C1` (centres unmarked) [compound 827108], 0.302 µM. As for `CN(C(=O)CCCN1CCN(c2csc3cc(F)ccc23)CC1CCCc1ccccc1)C1CCCCC1` (centres unmarked) [compound 827109], the Ki under setting [1] is 0.0786 µM. As for `CCN(C(=O)CCCN1CCN(c2csc3cc(F)ccc23)CC1CCCc1ccccc1)C1CCCCC1` (centres unmarked) [compound 827110], under setting [1], the Ki worked out at 0.208 µM. With `O=C(CCCN1CCN(c2csc3cc(F)ccc23)CC1CCCc1ccccc1)N(CCO)C1CCCCC1` (centres unmarked) [compound 827111], the Ki under setting [1] amounted to 0.143 µM. For `CCOC(=O)C1CCN(C(=O)CCCN2CCN(c3csc4cc(F)ccc34)CC2CCCc2ccccc2)CC1` (centres unmarked) [compound 827112], under setting [2], the Ki worked out at 0.126 µM.

As for `O=C(CCCN1CCN(c2csc3cc(F)ccc23)CC1CCCc1ccccc1)N1CCC(O)CC1` (centres unmarked) [compound 827113], the Ki under setting [2] is 0.095 µM. On to `CC1CCCCN1C(=O)CCCN1CCN(c2csc3cc(F)ccc23)CC1CCCc1ccccc1` (centres unmarked) [compound 827114], for which, under setting [2], the Ki is 0.12 µM. For the molecule `C[C@H]1CC[C@H](NC(=O)[C@@H]2C[C@H]2CN2CCN(c3cccc(Cl)c3)CC2)CC1` [compound 827173], the Ki (read-out: d3Ki) was 0.00278 µM. As to `Cc1ccc(N2CCN(C[C@@H]3C[C@H]3C(=O)N[C@H]3CC[C@H](C)CC3)CC2)cc1` [compound 827174], under “read-out: d3Ki”, the Ki amounted to 0.0087 µM. Turning to `C[C@H]1CC[C@H](NC(=O)[C@@H]2C[C@H]2CN2CCN(c3ccccn3)CC2)CC1` [compound 827175], for the setting “read-out: d3Ki”, the Ki was found to be 0.004 µM.

`CCOc1ccccc1N1CCN(C[C@@H]2C[C@H]2C(=O)N[C@H]2CC[C@H](C)CC2)CC1` [compound 827176]: the Ki (read-out: d3Ki) worked out at 0.00118 µM. As to `C[C@H]1CC[C@H](NC(=O)[C@@H]2C[C@H]2CN2CCN(c3ccccc3Cl)CC2)CC1` [compound 827177], the Ki (read-out: d3Ki) was 0.001 µM.

In the case of `C[C@H]1CC[C@H](NC(=O)[C@@H]2C[C@H]2CN2CCN(c3ccc(Cl)cc3)CC2)CC1` [compound 827178], where the note is “read-out: d3Ki”, the Ki was 0.0124 µM.

`COc1ccccc1N1CCN(C[C@@H]2C[C@H]2C(=O)N[C@H]2CC[C@H](C)CC2)CC1` [compound 827179]: the Ki (read-out: d3Ki) was found to be 0.00104 µM. On to `Cc1cccc(N2CCN(C[C@@H]3C[C@H]3C(=O)N[C@H]3CC[C@H](C)CC3)CC2)c1` [compound 827180], for which the Ki (read-out: d3Ki) stood at 0.00247 µM. As to `C[C@H]1CC[C@H](NC(=O)[C@@H]2C[C@H]2CN2CCN(c3ccc(C(F)(F)F)cc3Cl)CC2)CC1` [compound 827181], the Ki (read-out: d3Ki) stood at 0.0972 µM. Consider `C[C@H]1CC[C@H](NC(=O)[C@@H]2C[C@H]2CN2CCN(c3ccc(C(F)(F)F)cn3)CC2)CC1` [compound 827182], for which the Ki (read-out: d3Ki) stood at 0.073 µM.

As for `C[C@H]1CC[C@H](NC(=O)[C@@H]2C[C@H]2CN2CCN(c3ncccc3C(F)(F)F)CC2)CC1` [compound 827183], for the setting “read-out: d3Ki”, the Ki came to 0.00329 µM. For the molecule `CC(C)(C)OC(=O)N1CCN(C[C@@H]2C[C@H]2C(=O)N[C@H]2CC[C@H](C)CC2)CC1` [compound 827184], where the note is “read-out: D3 Ki”, the Ki was found to be 0.237 µM. Take `C[C@H]1CC[C@H](NC(=O)[C@@H]2C[C@H]2CN2CCN(c3ccc(Cl)c(Cl)c3)CC2)CC1` [compound 827185]: for the setting “read-out: d3Ki”, the Ki came out at 0.00489 µM. For `Cc1ccc(C)c(N2CCN(C[C@@H]3C[C@H]3C(=O)N[C@H]3CC[C@H](C)CC3)CC2)c1` [compound 827186], under “read-out: d3Ki”, the Ki is 0.00821 µM. On to `C[C@H]1CC[C@H](NC(=O)[C@@H]2C[C@H]2CN2CCN(c3cnccn3)CC2)CC1` [compound 827187], for which the Ki (read-out: d3Ki) is 0.0106 µM.

In the case of `C[C@H]1CC[C@H](NC(=O)[C@@H]2C[C@H]2CN2CCN(c3ccco3)CC2)CC1` [compound 827189], the Ki (read-out: d3Ki) came out at 0.126 µM. For `C[C@H]1CC[C@H](NC(=O)[C@@H]2C[C@H]2CN2CCN(c3cccc(C(F)(F)F)c3)CC2)CC1` [compound 827190], under “read-out: d3Ki”, the Ki worked out at 0.00242 µM. With `C[C@H]1CC[C@H](NC(=O)[C@@H]2C[C@H]2CN2CCN(c3ccccc3)CC2)CC1` [compound 827191], the Ki (read-out: d3Ki) stood at 0.000724 µM. As to `Cc1ccc(N2CCN(C[C@@H]3C[C@H]3C(=O)N[C@H]3CC[C@H](C)CC3)CC2)c(C)c1` [compound 827193], the Ki (read-out: d3Ki) came out at 0.0406 µM. As to `COc1ccc(N2CCN(C[C@@H]3C[C@H]3C(=O)N[C@H]3CC[C@H](C)CC3)CC2)cc1` [compound 827194], the Ki (read-out: d3Ki) is 0.0244 µM. `COc1cccc(N2CCN(C[C@@H]3C[C@H]3C(=O)N[C@H]3CC[C@H](C)CC3)CC2)c1` [compound 827195]: for the setting “read-out: d3Ki”, the Ki is 0.00818 µM. Turning to `CC1CCC(NC(=O)C2CC2CN2CCN(c3ccc(F)cc3)CC2)CC1` (centres unmarked) [compound 827196], the Ki under setting [1] worked out at 0.00235 µM.

Take `CC1CCC(NC(=O)C2CC2CN2CCN(c3ncccn3)CC2)CC1` (centres unmarked) [compound 827197]: where the note is “read-out: d3Ki”, the Ki came out at 0.0276 µM. Turning to `C[C@H]1CC[C@H](NC(=O)[C@@H]2C[C@H]2CN2CCN(CCc3ccccc3)CC2)CC1` [compound 827198], under setting [1], the Ki worked out at 0.161 µM. Regarding `C[C@H]1CC[C@H](NC(=O)[C@@H]2C[C@H]2CN2CCN(c3ccc(Cl)c(C(F)(F)F)c3)CC2)CC1` [compound 827199], for the setting “read-out: d3Ki”, the Ki came to 0.00434 µM. On the same count and under the same terms, the result for `Cc1cccc(C)c1N1CCN(C[C@@H]2C[C@H]2C(=O)N[C@H]2CC[C@H](C)CC2)CC1` [compound 827200] reads 0.119 µM.

Take `C[C@H]1CC[C@H](NC(=O)[C@@H]2C[C@H]2CN2CCN(Cc3ccc4c(c3)OCO4)CC2)CC1` [compound 827201]: under setting [1], the Ki came to 0.126 µM. As to `C[C@H]1CC[C@H](NC(=O)[C@@H]2C[C@H]2CN2CCN(c3ccc([N+](=O)[O-])cc3)CC2)CC1` [compound 827205], under “read-out: d3Ki”, the Ki was found to be 0.2 µM. Take `CC(=O)c1ccc(N2CCN(C[C@@H]3C[C@H]3C(=O)N[C@H]3CC[C@H](C)CC3)CC2)cc1` [compound 827206]: the Ki (read-out: d3Ki) amounted to 0.0597 µM. Still for that read-out and setting: the result for `CC[C@H]1CC[C@H](NC(=O)[C@@H]2C[C@H]2CN2CCN(c3cccc(Cl)c3)CC2)CC1` [compound 827212] reads 0.0012 µM; that for `CC[C@H]1CC[C@H](NC(=O)[C@@H]2C[C@H]2CN2CCN(c3ccc(C)cc3)CC2)CC1` [compound 827213], 0.0111 µM; that for `CC[C@H]1CC[C@H](NC(=O)[C@@H]2C[C@H]2CN2CCN(c3ccccn3)CC2)CC1` [compound 827214], 0.00613 µM. With `CCOc1ccccc1N1CCN(C[C@@H]2C[C@H]2C(=O)N[C@H]2CC[C@H](CC)CC2)CC1` [compound 827215], the Ki (read-out: d3Ki) was determined as 0.000229 µM. With `CC[C@H]1CC[C@H](NC(=O)[C@@H]2C[C@H]2CN2CCN(c3ccccc3Cl)CC2)CC1` [compound 827216], the Ki (read-out: d3Ki) stood at 0.00216 µM. As to `CC[C@H]1CC[C@H](NC(=O)[C@@H]2C[C@H]2CN2CCN(c3ccccc3OC)CC2)CC1` [compound 827218], where the note is “read-out: d3Ki”, the Ki amounted to 0.00122 µM.

As to `CC[C@H]1CC[C@H](NC(=O)[C@@H]2C[C@H]2CN2CCN(c3cccc(C)c3)CC2)CC1` [compound 827219], the Ki (read-out: d3Ki) is 0.00263 µM. As to `CC[C@H]1CC[C@H](NC(=O)[C@@H]2C[C@H]2CN2CCN(c3ccc(C(F)(F)F)cn3)CC2)CC1` [compound 827221], the Ki (read-out: d3Ki) was found to be 0.0992 µM. For the molecule `CC[C@H]1CC[C@H](NC(=O)[C@@H]2C[C@H]2CN2CCN(c3cnccn3)CC2)CC1` [compound 827226], the Ki by setting is: (read-out: D3 Ki) 0.0161 µM; (read-out: d3Ki) 0.0161 µM. On to `CC[C@H]1CC[C@H](NC(=O)[C@@H]2C[C@H]2CN2CCN(C(=O)c3ccco3)CC2)CC1` [compound 827228], for which the Ki (read-out: d3Ki) was found to be 0.062 µM. Consider `CC[C@H]1CC[C@H](NC(=O)[C@@H]2C[C@H]2CN2CCN(c3cccc(C(F)(F)F)c3)CC2)CC1` [compound 827229], for which the Ki is 0.00171 µM (read-out: D3 Ki) and 0.00171 µM (read-out: d3Ki).

In the case of `CC[C@H]1CC[C@H](NC(=O)[C@@H]2C[C@H]2CN2CCN(c3ccccc3)CC2)CC1` [compound 827230], the Ki (read-out: d3Ki) amounted to 0.00209 µM. With `CC[C@H]1CC[C@H](NC(=O)[C@@H]2C[C@H]2CN2CCN(c3ccc(OC)cc3)CC2)CC1` [compound 827233], the Ki (read-out: d3Ki) amounted to 0.0277 µM. Still for that read-out and setting: under `CC[C@H]1CC[C@H](NC(=O)[C@@H]2C[C@H]2CN2CCN(c3cccc(OC)c3)CC2)CC1` [compound 827234] stands 0.00315 µM. Consider `CC[C@H]1CC[C@H](NC(=O)[C@@H]2C[C@H]2CN2CCN(c3ccc(F)cc3)CC2)CC1` [compound 827235], for which the Ki (read-out: d3Ki) worked out at 0.00449 µM. Turning to `CC[C@H]1CC[C@H](NC(=O)[C@@H]2C[C@H]2CN2CCN(c3ncccn3)CC2)CC1` [compound 827236], the Ki (read-out: d3Ki) stood at 0.0129 µM. On the same count and under the same terms, under `CC[C@H]1CC[C@H](NC(=O)[C@@H]2C[C@H]2CN2CCN(c3ccc(Cl)c(C(F)(F)F)c3)CC2)CC1` [compound 827238] stands 0.00248 µM; under `CC[C@H]1CC[C@H](NC(=O)[C@@H]2C[C@H]2CN2CCN(c3ccc([N+](=O)[O-])cc3)CC2)CC1` [compound 827244], 0.197 µM. The same measure, in the same setting: the result for `CC[C@H]1CC[C@H](NC(=O)[C@@H]2C[C@H]2CN2CCN(c3ccc(C(C)=O)cc3)CC2)CC1` [compound 827245] reads 0.043 µM.

Regarding `C[C@H]1CC[C@H](NC(=O)[C@@H]2C[C@H]2CN2CCN(c3cccc4cccnc34)CC2)CC1` [compound 827253], the Ki under setting [1] was determined as 0.0158 µM. On to `Cc1ccc(N2CCCN(C[C@@H]3C[C@H]3C(=O)N[C@H]3CC[C@H](C)CC3)CC2)nc1` [compound 827731], for which the Ki under setting [1] is 0.0195 µM. For `CC[C@H]1CC[C@H](NC(=O)[C@@H]2C[C@H]2CN2CCCN(c3ccc(C)cn3)CC2)CC1` [compound 827732], the Ki under setting [1] was determined as 0.0105 µM. Turning to `CC[C@H]1CC[C@H](NC(=O)[C@@H]2C[C@H]2CN2CCCN(c3ncccc3Cl)CC2)CC1` [compound 827733], the Ki under setting [1] was 0.00119 µM. For `CCC1CCC(NC(=O)C2CC2CN2CCCN(c3ccccn3)CC2)CC1` (centres unmarked) [compound 827800], the Ki under setting [1] amounted to 0.0197 µM.
